Data published in US10398142B2, “Polycationic amphiphiles as antimicrobial agents” (priority 2013, dated 2019).
“Also recorded” adds a separate entry of the source. Like-named read-outs stand apart in the source and are kept apart here. Marks after values point to notes of the source that are not given here.

Experiments:
[1] = system: Enterococcus faecalis (OG1RF); experiment: Minimum inhibitory concentration (MIC), broth microdilution; format: cell-based; details: read-out: MIC E. faecalis
Method: (§1) The term “minimum inhibitory concentration (MIC)” means the lowest concentration of an antimicrobial agent that will inhibit the visible growth of a microorganism after overnight incubation. MIC values against bacteria, for example, the Gram-positive Staphylococcus aureus and Enterococcus faecalis and the Gram-negative Escherichia coli and Pseudomonas aeruginosa were determined by standard methods.
(§2) With nearly three-dozen amphiphiles varying in structure and cationic nature synthesized, minimum inhibitory concentration (MIC) values against the Gram-positive Staphylococcus aureus and Enterococcus faecalis and the Gram-negative Escherichia coli and Pseudomonas aeruginosa were determined by standard methods. […] The commercially available antibacterial agent benzalkonium chloride (benzyldimethyldodecylammonium chloride, Bn,12) was tested for comparison. The broth microdilution for determining MIC values was performed as previously reported.
(§3) Different biological assays were performed. […] All cultures, with the exception of E. faecalis, were grown with shaking at 250 rpm.
(§4) Minimum inhibitory concentration (MIC) values against bacteria were measured using standard method. Compounds were serially diluted two-fold from an aqueous stock solution to yield twelve test concentrations. Overnight S. aureus, E. faecalis, E. coli, P. aeruginosa, CA-MRSA, and HA-MRSA cultures diluted to ca. 10^6 cfu/mL in Mueller-Hinton media and 100 μL were inoculated into each well of a U-bottom 96-well plate (BD Biosciences, BD351177) containing 100 μL of compound solution. Plates were incubated statically at 37° C. for 72 hours upon which time wells were evaluated visually for bacterial growth. The MIC was determined as the lowest concentration of compound resulting in no bacterial growth visible to the naked eye, based on the majority of three independent experiments. Positive and negative aqueous and media controls were conducted for each trial.

[2] = system: Escherichia coli (MC4100); experiment: as above; format: cell-based; details: read-out: MIC E. coli
Method: as §1, §2, §3, §4

[3] = system: Pseudomonas aeruginosa (PAO1); experiment: as above; format: cell-based; details: read-out: MIC P. aeruginosa
Method: as §1, §2, §3, §4

[4] = system: Staphylococcus aureus MSSA (SH1000); experiment: as above; format: cell-based
Method: as §1, §2, §3, §4

CA-MRSA (USA300-0114) = experiment: as above; format: cell-based, Staphylococcus aureus; details: for MIC: read-out: MIC CA-MRSA; for potency against CA-MRSA strain possessing qacA/R (in words): compared with MSSA
Method: as §3, §4

HA-MRSA (ATCC 33591) = experiment: as above; format: cell-based, Staphylococcus aureus; details: for MIC: read-out: MIC HA-MRSA
Method: as §3, §4

[5] = system: S. aureus (MSSA, SH1000) biofilms; experiment: Minimum biofilm eradication concentration (MBEC), regrowth assay; format: cell-based, Staphylococcus aureus; details: for MBEC MSSA: Table 5, SH1000
Excerpt: (§5) A regrowth assay was used to establish the MBEC of a compound to evaluate the antibiofilm activity. See also H. Ceri, M. Olson, D. Morck, D. Storey, R. Read, A. Buret, B. Olson, Methods Enzymol. 2001, 337, 377.
(§6) Encouraged by the potency of the QACs against planktonic bacterial cells, the inventors then evaluated the efficacy of compound (12,2,12) against Staphylococcus aureus and Enterococcus faecalis biofilms. […] To both accurately evaluate the antibiofilm activity, a regrowth assay was utilized to establish the minimum biofilm eradication concentration (MBEC) of each compound.
(§7) Different biological assays were performed. For all biological assays, laboratory strains of methicillin-susceptible Staphylococcus aureus MSSA (SH1000), Enterococcus faecalis (OG1RF), Escherichia coli (MC4100), Pseudomonas aeruginosa (PAO1), community-acquired methicillin-resistant Staphylococcus aureus CA-MRSA (USA300-0114), and hospital-acquired methicillin-resistant Staphylococcus aureus HA-MRSA (ATCC 33591) were grown at 37° C. overnight from freezer stocks in 10 mL of the media indicated for each assay. All cultures, with the exception of E. faecalis, were grown with shaking at 250 rpm.
(§8) Minimum biofilm eradication concentration (MBEC) was also measured. To each well of a flat-bottomed 96-well plate (Corning 3370), 8 μL of overnight bacterial culture was brought to a volume of 200 μL with fresh media (BHI for S. aureus and MRSA, Todd Hewitt (TH) for E. faecalis). Plates were incubated statically for 24 hours at 37° C. to establish biofilms. After 24 hours, the wells were carefully emptied by inverting the plate and gently shaking. A pre-mixed solution of media and aqueous compound stock solution was added to each well and plates were incubated at 37° C. 16 hours after pre-established biofilms were treated with compound, the media from each well was removed, biofilms were washed three times with 200 μL PBS to remove planktonic cells, and biofilms were incubated overnight at 37° C. in 200 μL of fresh media to allow any viable cells to continue growing. The wells were then vigorously pipetted to resuspend the biofilm cells and the OD at 595 nm was measured using a plate reader (POLARstar Omega, BMG Labtech). Biofilms reaching a final OD of less than 0.1 were considered eradicated and the lowest concentration of antibiotic corresponded to the MBEC. Four replicates were completed for each concentration of compound as well as positive and negative controls.

E. faecalis biofilms = experiment: as above; format: cell-based, Enterococcus faecalis
Excerpt: as §5, §6, §7, §8

[6] = system: CA-MRSA (USA300-0114) biofilms; experiment: as above; format: cell-based, Staphylococcus aureus; details: Table 5; for MBEC CA-MRSA: USA300-0114
Method: as §5, §7, §8

[7] = system: red blood cells (defibrinated sheep blood); experiment: Hemolysis assay (Lysis20); details: for Lysis20: Table 4, concentration at which less than 20% of red blood cells are lysed
Method: Hemolysis assays (Lysis20) were performed according to the procedure detailed in Peng, L., DeSousa, J., Su, Z., Novak, B. M., Nevzorov, A. A., Garland, E. R., and Melander, C., Inhibition of Acinetobacter baumannii biofilm formation on a methacrylate polymer containing a 2-aminoimidazole subunit, Chem. Comm. 2011, 47, 4896-4898. Defibrinated sheep blood was purchased from Hemostat Labs (DSB 100). Compounds representative of each class were serially diluted in sterile PBS from aqueous stock solutions and incubated with resuspended blood cells. The OD of the final suspensions were measured directly using plate reader. TritonX (1% by volume) served as a positive control (100% lysis marker) and sterile PBS served as a negative control (0% lysis marker).
Lysis20 indicates the concentration of compound (in μM) at which less than 20% of red blood cells are lysed.

[8] = Table 3, read-out: MIC S. aureus
[9] = Table 4, SH1000, read-out: MIC MSSA
[10] = Table 2, pre-established biofilm, ± values varied between 50 and 100 μM for the six trials
[11] = Staphylococcus aureus, MSSA, Table 4, SH1000, read-out: MIC MSSA
[12] = Staphylococcus aureus, Table 4, USA300-0114
[13] = Staphylococcus aureus, Table 4, ATCC 33591

Row | Compound | MIC [4, 9] [µM] | MIC (CA-MRSA (USA300-0114); Table 4, USA300-0114) [µM] | MIC (HA-MRSA (ATCC 33591); Table 4, ATCC 33591) [µM] | MBEC MSSA [5] [µM] | MBEC E. faecalis (E. faecalis biofilms; Table 5) [µM] | MBEC CA-MRSA [6] [µM] | Lysis20 [7] [µM] | further results
1 | CCCCCCCCCCCCCCCC[N+](C)(C)CCCCC[N+](C)(C)CCCCCCCCCCCCCCCC.[Br-].[Br-] [16,5,16] | 2 | 8 | 1 | 200 | ≥200 | >200 | 4 | MIC ([1]; Table 3): 2 µM; MIC ([2]; Table 3): 16 µM; MIC ([3]; Table 3): 32 µM; MIC [4, 8]: 2 µM
2 | CCCCCCCCCCCC[n+]1cccc(-c2ccc[n+](Cc3ccccc3)c2)c1.[Br-].[Br-] [MQ-12,Bn] | 8 | 16 | 16 | >200 | >200 | >200 | 125 | prokaryotic selectivity (lytic profile vs MIC, in words) [7]: highest prokaryotic selectivity
3 | C=CC[N+](C)(CCC[N+](C)(C)CCCCCCCCCCCC)CCC[N+](C)(C)CCCCCCCCCCCC.[Br-].[Br-].[Br-] [12,3,3A,3,12] | 1 | 1 | 1 | 50 | 75 ± 25 | 100 | 8 | MIC ([1]; Table 3): 2 µM; MIC ([2]; Table 3): 2 µM; MIC ([3]; Table 3): 4 µM; MIC [4, 8]: 1 µM
4 | CCCCCCCCCCCC[N+](C)(C)CCCCC[N+](C)(C)CCCCCCCCCCCC.[Br-].[Br-] [12,5,12] | 2 | 1 | 0.5 | 50 | 100 | 100 | 8 | MIC ([1]; Table 1): 1 µM; MIC ([1]; Table 3): 1 µM; MIC ([2]; Table 1): 1 µM; MIC ([2]; Table 3): 1 µM; MIC ([3]; Table 1): 4 µM; MIC ([3]; Table 3): 2 µM; MIC ([4]; Table 1, read-out: MIC S. aureus): 1 µM; MIC [4, 8]: 2 µM; MBEC S. aureus [5, 10]: 75 ± 25^a μM; MBEC E. faecalis (E. faecalis biofilms; [10]): 75 ± 25^a μM
5 | CCCCCCCCCC[N+](C)(C)CCCCCCCCCC.[Cl-] [10,10, reference compound] | 1 | 4 | 2 | 150 ± 50 | >200 | ≥200 | 16 | –
6 | CCCCCCCCCC[N+](C)(C)CCCN(C)CCC[N+](C)(C)CCCCCCCCCC [10,3,0,3,10] | – | – | – | 150 ± 50 | 50 | 150 ± 50 | 32 | MIC [4, 11]: 1 µM; MIC (CA-MRSA (USA300-0114); [12]): 2 µM; MIC (HA-MRSA (ATCC 33591); [13]): 2 µM; prokaryotic selectivity (lytic profile vs MIC, in words) ([7]; among the multiQACs evaluated): highest prokaryotic selectivity
7 | CCCCCCCCCCCCCCCC[n+]1ccccc1.[Cl-] [Pyr,16, reference compound] | 0.5 | 16 | 1 | 50 | 50 | 200 | 8 | potency against CA-MRSA strain possessing qacA/R (in words) (CA-MRSA (USA300-0114)): decreased potency; decrease in efficacy against MRSA biofilms compared to MSSA ([6]; MBEC): four-fold decrease in efficacy
8 | CCCCCCCCCCCCCCCC[N+](C)(C)CCN(C)C.[Br-] [16,2,0] | 1 | 4 | 2 | 100 | 50 | >200 | 16 | –
9 | CCCCCCCCCCCC[N+](C)(C)CCCN(C)C.[Br-] [12,3,0] | 4 | 8 | 4 | >200 | >200 | >200 | 32 | –
10 | CCCCCCCCCC[N+](C)(C)CCC[N+](C)(CC)CCC[N+](C)(C)CCCCCCCCCC [10,3,2,3,10] | – | – | – | 200 | 100 | 150 ± 50 | 32 | MIC [4, 11]: 2 µM; MIC (CA-MRSA (USA300-0114); [12]): 2 µM; MIC (HA-MRSA (ATCC 33591); [13]): 2 µM; prokaryotic selectivity (lytic profile vs MIC, in words) ([7]; among the multiQACs evaluated): highest prokaryotic selectivity
11 | CCCCCCCCCCCC[n+]1ccc(-c2cc[n+](Cc3ccccc3)cc2)cc1 [PQ-12,Bn] | – | – | – | 200 | 200 | 200 | 125 | MIC ([4]; Staphylococcus aureus, MSSA, read-out: MIC MSSA): 4 µM; MIC (CA-MRSA (USA300-0114); Staphylococcus aureus): 32 µM; potency against CA-MRSA strain possessing qacA/R (in words) (CA-MRSA (USA300-0114)): elevated MICs; also recorded: decreased potency; MIC (HA-MRSA (ATCC 33591); Staphylococcus aureus): 16 µM; potency against HA-MRSA (in words) (HA-MRSA (ATCC 33591); compared with MSSA): elevated MICs; prokaryotic selectivity (lytic profile vs MIC, in words) ([7]; among the multiQACs evaluated): highest prokaryotic selectivity
12 | CCCCCCCCCCCC[n+]1ccc(-c2cc[n+](CCCCCCCCCCCC)cc2)cc1.[Br-].[Br-] [PQ-12,12] | 1 | 1 | 0.5 | 200 | 200 | 100 | 8 | –
13 | CCCCCCCCCCCC[n+]1ccc(-c2ccc[n+](CCCCCCCCCCCC)c2)cc1.[Br-].[Br-] [PMQ-12,12] | 1 | 1 | 1 | 100 | 100 | 150 ± 50 | 8 | –
14 | CCCCCCCCCCCC[n+]1cccc(-c2ccc[n+](CCCCCCCCCCCC)c2)c1.[Br-].[Br-] [MQ-12,12] | 1 | 2 | 1 | 100 | 100 | 100 | 8 | –
